The target in data set [1] is Full length SHP2 protein (Recombinant Human SHP-2) (Homo sapiens (Human), UniProt Q06124). Briefly: SHP2 biochemical assay (DiFMUP substrate, activating peptide IRSI_2pY).
Method: The inhibition of SHP2 by compounds of the invention was monitored using the surrogate substrate DiFMUP after protein activation by a peptide bearing two appropriately spaced phosphotyrosine. […] The generation of the DiFMU product by activated SHP2 was monitored through Fluorescence measurement with a PerkinElmer Envision reader. The inhibitor dose response curves were analyzed with Genedata Screener.
For data set [2], the target named is auto-activated mutant protein SHP2 E76K (Homo sapiens (Human), UniProt Q06124, E76K). In words: SHP2 active mutant E76K biochemical assay with and without activating peptide.
Method: The inhibition of SHP2 by compounds of the invention was monitored using the surrogate substrate DiFMUP after protein activation by a peptide bearing two appropriately spaced phosphotyrosine. Full length SHP2 protein (Recombinant HumanSHP-2, E. coli derived Ser2Arg593, N-terminal 6His tag from R&D systems; 0.0.24 nM) was incubated with activating peptide, IRSI_2pY (New England Peptide, 140 nM) and DiFMUP (molecular probes, 80 uM) at RT in buffer (HEPES pH 7.2 60 mM, DDT 5 mM, KCl 75 mM, NaCl 75 mM, EDTA 1 mM, Tween 20 0.05%) in presence of compound (10 concentrations range, top concentration 50 μM) for 60 min. The generation of the DiFMU product by activated SHP2 was monitored through Fluorescence measurement with a PerkinElmer Envision reader. The inhibitor dose response curves were analyzed with Genedata Screener.
The test system of another data set is pERK1/2 in KYSE520 cells. Briefly: p-Erk cellular assay in KYSE520 (Mesoscale). The format is cell-based. As to conditions: read-out: pERK1/2 in Cell KYSE520 IC50. On the procedure:
p-Erk Cellular Assay in KYSE520: The effect of SHP2 inhibitors on pERK level was assessed using phospho-specific antibody using Mesoscale quantification platform. For measuring change in pERK levels using mesoscale, 30,000 cells of KYSE520 cells were plated in 96-well tissue culture treated plate in 175 μl volume of media. After an overnight incubation at 37° C., various SHP2 inhibitors were added in different concentration to each well maintaining duplicate wells across plates and incubated with compounds for 2 h at 37° C. followed by a wash with ice cold PBS buffer. The cells were then lysed in lysis buffer and processed and analyzed for p-ERK/ERK as per manufacturer's instructions (Mesoscale discovery, cat No. […]-3).

Data set [3] has as its target Kv11.1 (hERG) ion channel (Homo sapiens (Human), UniProt Q12809). Briefly: hERG patch clamp in Kv11.1 transfected HEK293 cells. In kind it is cell-based. On the procedure: Inhibition of the ion channel hErg (or Kv11.1) current causes QT interval prolongation resulting in potentially fatal ventricular tachyarrhythmia called Torsade de Pointes.
hERG ion channel activity was assessed using a patch clamp technique in stable Kv11.1 (hERG) transfected human embryonic kidney cell line (HEK293). Whole cell recordings were carried out with an automated patch clamp device Patchliner™ from Nanion Technologies, Munich following manufacturer recommendation. Different concentrations of the test compound or reference, quinidine, were applied to whole cells suspension and current was measured using a pulse pattern with fixed amplitudes.

A short description of data set [4]: Pharmacokinetics in mouse (oral / intravenous). The format is in vivo. As to conditions: female CD1 mice; for Vd / clearance: mouse; for Vd: read-out: Vd ss. As to the method:
Female CD1 mice (N=3) received a single oral (gavage) or a single intravenous (bolus) injection of compound. […] Consecutive blood samples were taken sub-lingually under isofluorane inhalation from animals after 0.083 (IV), 0.25, 0.5, 1, 2, 4, 6 and 24 h and were further processed to obtain plasma. Samples were protein precipitated and analysed by LC/MS/MS.

The mark [5] stands for this setting: SHP-2 IC50 (nM) peptide, wild-type SHP-2, with activating peptide.
[6] abbreviates: activating peptide IRSI_2pY 140 nM, DiFMUP, 60 min, read-out: SHP-2 biochemical assay IC50.
Setting [7] is: with activating peptide IRSI_2pY 140 nM, read-out: SHP-2 E76Z IC50 (nM) peptide.
Where [8] appears, read: without activating peptide, read-out: SHP-2 E76Z IC50 (nM) No peptide.
The mark [9] stands for this setting: SHP-2 biochemical assay IC50 (μM), activating peptide IRSI_2pY 140 nM, DiFMUP, 60 min.

Read-outs that look alike come from different tables or passages of the source. A value given as a limit tells only on which side of the number the result lay.

Chain of Kv11.1 (hERG) ion channel (Q12809 whole entry): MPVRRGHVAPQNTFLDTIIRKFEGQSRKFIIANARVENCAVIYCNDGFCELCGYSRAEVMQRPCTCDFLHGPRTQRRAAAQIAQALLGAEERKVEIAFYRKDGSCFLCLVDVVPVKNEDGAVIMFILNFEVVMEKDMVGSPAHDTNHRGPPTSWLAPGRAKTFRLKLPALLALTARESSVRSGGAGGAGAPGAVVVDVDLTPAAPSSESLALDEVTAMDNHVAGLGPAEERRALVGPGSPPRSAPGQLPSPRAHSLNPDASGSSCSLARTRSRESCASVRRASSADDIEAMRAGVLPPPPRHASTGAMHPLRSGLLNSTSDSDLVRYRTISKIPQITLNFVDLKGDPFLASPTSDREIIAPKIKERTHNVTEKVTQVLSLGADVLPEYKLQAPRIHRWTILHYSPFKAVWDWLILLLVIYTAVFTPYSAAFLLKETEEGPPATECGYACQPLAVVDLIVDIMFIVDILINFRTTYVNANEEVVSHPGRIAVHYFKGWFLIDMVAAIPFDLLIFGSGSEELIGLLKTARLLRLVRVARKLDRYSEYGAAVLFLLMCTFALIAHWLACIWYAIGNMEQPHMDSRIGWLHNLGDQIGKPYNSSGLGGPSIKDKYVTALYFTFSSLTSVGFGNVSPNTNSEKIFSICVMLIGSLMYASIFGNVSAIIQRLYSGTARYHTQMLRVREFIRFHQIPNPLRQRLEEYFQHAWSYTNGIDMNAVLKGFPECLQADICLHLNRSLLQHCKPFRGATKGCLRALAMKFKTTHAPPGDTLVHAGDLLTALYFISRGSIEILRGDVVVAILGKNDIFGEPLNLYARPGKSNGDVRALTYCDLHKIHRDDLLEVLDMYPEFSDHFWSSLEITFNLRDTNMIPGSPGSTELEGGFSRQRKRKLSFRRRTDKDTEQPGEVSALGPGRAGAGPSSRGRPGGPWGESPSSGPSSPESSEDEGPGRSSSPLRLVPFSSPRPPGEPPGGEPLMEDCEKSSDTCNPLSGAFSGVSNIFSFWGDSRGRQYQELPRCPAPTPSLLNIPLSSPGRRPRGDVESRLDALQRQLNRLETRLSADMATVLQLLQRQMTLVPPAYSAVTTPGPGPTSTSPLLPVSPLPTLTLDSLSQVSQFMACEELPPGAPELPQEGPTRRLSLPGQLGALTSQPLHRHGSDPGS
Chain of Full length SHP2 protein (Recombinant Human SHP-2) (Q06124 2-593): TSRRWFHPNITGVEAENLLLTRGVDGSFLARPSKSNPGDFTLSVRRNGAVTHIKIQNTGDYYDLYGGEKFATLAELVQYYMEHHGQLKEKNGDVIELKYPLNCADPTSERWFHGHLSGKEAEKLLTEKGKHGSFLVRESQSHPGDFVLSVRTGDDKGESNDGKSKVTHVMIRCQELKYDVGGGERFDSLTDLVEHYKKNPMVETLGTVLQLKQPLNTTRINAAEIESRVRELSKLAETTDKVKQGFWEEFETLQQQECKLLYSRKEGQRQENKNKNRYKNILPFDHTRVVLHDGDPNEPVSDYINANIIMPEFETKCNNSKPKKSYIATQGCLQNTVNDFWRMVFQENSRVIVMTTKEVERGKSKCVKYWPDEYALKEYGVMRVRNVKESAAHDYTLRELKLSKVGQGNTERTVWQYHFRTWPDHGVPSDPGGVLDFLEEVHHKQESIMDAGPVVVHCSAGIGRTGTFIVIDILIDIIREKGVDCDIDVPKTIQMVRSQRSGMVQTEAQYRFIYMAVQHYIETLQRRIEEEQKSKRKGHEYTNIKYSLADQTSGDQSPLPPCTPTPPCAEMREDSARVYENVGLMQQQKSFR
Chain of auto-activated mutant protein SHP2 E76K (Q06124 whole entry E76K): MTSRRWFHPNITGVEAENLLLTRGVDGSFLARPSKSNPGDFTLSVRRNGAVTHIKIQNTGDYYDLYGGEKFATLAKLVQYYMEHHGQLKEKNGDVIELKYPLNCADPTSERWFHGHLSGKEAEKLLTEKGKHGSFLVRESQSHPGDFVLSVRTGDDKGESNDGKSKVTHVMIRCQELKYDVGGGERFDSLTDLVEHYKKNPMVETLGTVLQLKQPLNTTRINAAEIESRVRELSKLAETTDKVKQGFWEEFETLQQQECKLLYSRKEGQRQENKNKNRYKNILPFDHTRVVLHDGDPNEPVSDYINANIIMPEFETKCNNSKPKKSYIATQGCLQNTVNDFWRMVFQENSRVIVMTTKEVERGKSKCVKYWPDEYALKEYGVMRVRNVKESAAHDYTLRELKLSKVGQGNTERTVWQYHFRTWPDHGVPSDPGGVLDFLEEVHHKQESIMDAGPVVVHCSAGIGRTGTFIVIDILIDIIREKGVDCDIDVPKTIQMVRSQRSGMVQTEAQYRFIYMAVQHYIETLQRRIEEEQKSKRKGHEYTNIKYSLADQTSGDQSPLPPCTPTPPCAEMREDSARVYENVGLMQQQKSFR

Turning to `Cc1c(N2CCC3(CC2)Cc2ncccc2[C@H]3N)nc(C)n(-c2cccc(Cl)c2Cl)c1=O` (single isomer, unassigned) [Compound 66a], the IC50 was determined as 48 nM in data set [1] (setting [5]), 73 nM in data set [1] (setting [6]), 200 nM in data set [2] (setting [7]) and 97 nM in data set [2] (setting [8]).
Turning to `Cc1c(N2CCC3(CC2)Cc2ccccc2[C@H]3N)nc(N)n(-c2cccc(Cl)c2Cl)c1=O` [Compound 117, 2-amino-6-[(3S)-3-amino-1,3-dihydrospiro[indene-2,4′-piperidin]-1′-yl]-3-(2,3-dichlorophenyl)-5-methyl-3,4-dihydropyrimidin-4-one], the IC50 in data set [1] (setting [6]) was 15 nM; with pERK1/2 in KYSE520 cells (Homo sapiens, KYSE-520, 2 h) it was 6 nM. The Ki in data set [3] turned out to be 2500 nM. Besides, the “Split between hErg and cell activity Ki (patch Clamp)/IC50 (KYSE)” value in data set [3] (human) is given as 417.
Turning to `[2H]C([2H])([2H])c1c(N2CCC3(CC2)Cc2ccccc2[C@H]3N)nc(C)n(-c2cccc(Cl)c2Cl)c1=O` [Compound 106, 6-[(1S)-1-amino-1,3-dihydrospiro[indene-2,4′-piperidin]-1′-yl]-3-(2,3-dichlorophenyl)-5-(2H3)methyl-2-methyl-3,4-dihydropyrimidin-4-one], the IC50 was determined as 1.7 nM in data set [1] (setting [5]); 6 nM in data set [1] (setting [9]); 10 nM in the data set on pERK1/2 in KYSE520 cells (Homo sapiens, KYSE-520, 2 h); 6.4 nM in data set [2] (setting [7]); 3.5 nM in data set [2] (setting [8]).
`Cc1nc(N2CCC3(CC2)CO[C@@H](C)[C@H]3N)c(CO)nc1-c1cccc(Cl)c1Cl` [RMC-4550, reference compound] gave a Ki in data set [3] of 600 nM. Further, the Fz in data set [4] is recorded as 86%. The Vd in data set [4] (in vivo) is 6.1 L/kg. In addition, in data set [4] (plasma, intravenous), the clearance was 20 mL/min/kg.
For the molecule `Cc1c(N2CCC3(CC2)Cc2ccccc2[C@H]3N)nc(C)n(-c2cccc(Cl)c2Cl)c1=O` (atropisomer, axis not shown) [Compound 74b, (3P)-6-[(1S)-1-amino-1,3-dihydrospiro[indene-2,4′-piperidin]-1′-yl]-3-(2,3-dichlorophenyl)-2,5-dimethyl-3,4-dihydropyrimidin-4-one], the IC50 worked out at 26 nM in data set [1] (setting [9]) and 624 nM in the data set on pERK1/2 in KYSE520 cells (2 h).
For `Cc1c(N2CCC3(CC2)Oc2cnccc2[C@@H]3N)nc(C)n(-c2cccc(Cl)c2Cl)c1=O` (single isomer, unassigned) [Compound 80b], in that order: more than 10000 nM and 16000 nM.
As for `Cc1c(N2CCC3(CC2)Cc2ccccc2[C@H]3N)nc(C)n(-c2ccc(F)c(Cl)c2Cl)c1=O` [Compound 109, 6-((1S)-1-amino-1,3-dihydrospiro[indene-2,4′-piperidin]-1′-yl]-3-(2,3-dichloro-4-fluorophenyl)-2,5-dimethyl-3,4-dihydropyrimidin-4-one], the IC50 came out at 2 nM in data set [1] (setting [6]) and 4 nM with pERK1/2 in KYSE520 cells (Homo sapiens, KYSE-520, 2 h).
With `Cc1nc(N2CCC(N)(CO)CC2)cc(=O)n1-c1cccc(Cl)c1Cl` [Compound 29, 6-[4-amino-4-(hydroxymethyl)piperidin-1-yl]-3-(2,3-dichlorophenyl)-2-methyl-3,4-dihydropyrimidin-4-one], the IC50 in data set [1] (setting [6]) was found to be 510 nM; in the data set on pERK1/2 in KYSE520 cells (Homo sapiens, KYSE-520, 2 h) it was 2780 nM.
In the same order, the values of `Cc1c(N2CCC3(CC2)CO[C@@H](C)[C@H]3N)nc(C)n(-c2ccc(F)c(Cl)c2Cl)c1=O` [Compound 99, 6-((3S,4S)-4-Amino-3-methyl-2-oxa-8-aza-spiro[4.5]dec-8-yl)-3-(2,3-dichloro-4-fluoro-phenyl)-2,5-dimethyl-3H-pyrimidin-4-one] are 28 nM and 955 nM.
In the case of `Cc1c(N2CCC3(CC2)Oc2ccccc2[C@H]3N)nc(C)n(-c2cccc(Cl)c2Cl)c1=O` (single isomer, unassigned) [Compound 81b], the IC50 in data set [1] (setting [5]) amounted to 0.3 nM; in data set [1] (setting [6]), 1.4 nM; with pERK1/2 in KYSE520 cells (Homo sapiens, KYSE-520, 2 h), 6.6 nM; in data set [2] (SHP-2 E76Z IC50 (nM) No peptide, without activating peptide) it was 0.5 nM; in data set [2] (SHP-2 E76Z IC50 (nM) peptide, with activating peptide IRSI_2pY 140 nM), 1.1 nM. In data set [4], this molecule gave a Fz of 48%. The molecule further gave a clearance in data set [4] (plasma, intravenous) of 2.5 mL/min/kg. Further, in data set [4] (plasma, intravenous), the Vd was 0.68 L/kg.
For `Cc1c(N2CCC3(CCC[C@H]3N)CC2)nc(C)n(-c2cccc(Cl)c2Cl)c1=O` [Compound 67b, (3M)-6-[(1R)-1-amino-8-azaspiro[4.5]decan-8-yl]-3-(2,3-dichlorophenyl)-2,5-dimethyl-3,4-dihydropyrimidin-4-one], the IC50 worked out at 41 nM in data set [1] (setting [6]) and 198 nM with pERK1/2 in KYSE520 cells (2 h).
`Cc1nc(N2CCC3(CC2)CO[C@@H](C)[C@H]3N)cc(=O)n1-c1cccc(Cl)c1Cl` (single isomer, unassigned) [Compound 3b]: the Fz in data set [4] stood at 85%. For the same molecule, in data set [4] (plasma, intravenous), the clearance is 8 mL/min/kg and the Vd turned out to be 2.77 L/kg.
As to `Cc1c(N2CCC3(CC2)Oc2ncccc2[C@@H]3N)nc(C)n(-c2cccc(Cl)c2Cl)c1=O` [Compound 79b, (3M)-6-[(3S)-3-amino-3H-spiro[furo[2,3-b]pyridine-2,4′-piperidin]-1′-yl]-3-(2,3-dichlorophenyl)-2,5-dimethylpyrimidin-4-one], the IC50 was 6 nM in data set [1] (setting [9]) and 102 nM in the data set with pERK1/2 in KYSE520 cells (Homo sapiens, KYSE-520, 2 h).
As for `Cc1c(N2CCC3(CC2)CO[C@@H](C)[C@H]3N)nc(C)n(-c2cccc(F)c2Cl)c1=O` [Compound 96, 6-((3S,4S)-4-Amino-3-methyl-2-oxa-8-aza-spiro[4.5]dec-8-yl)-3-(2-chloro-3-fluoro-phenyl)-2,5-dimethyl-3H-pyrimidin-4-one], the IC50 was 150 nM in data set [1] (setting [6]) and 2000 nM in the data set with pERK1/2 in KYSE520 cells (Homo sapiens, KYSE-520, 2 h).
In the same order, the values of `Cc1c(F)ccc(-n2c(C)nc(N3CCC4(CC3)CO[C@@H](C)[C@H]4N)c(C)c2=O)c1Cl` [Compound 103, 6-((3S,4S)-4-Amino-3-methyl-2-oxa-8-aza-spiro[4.5]dec-8-yl)-3-(2-chloro-4-fluoro-3-methyl-phenyl)-2,5-dimethyl-3H-pyrimidin-4-one] are 67 nM and 2740 nM.
In the case of `CC1(N)CCN(c2cnc(-c3cccc(Cl)c3Cl)c(N)n2)CC1` [SHP-099, reference compound], in data set [4] (in vivo), the clearance is 95 mL/min/kg and the Vd was found to be 5 L/kg.
Consider `C[C@@H]1OCC2(CCN(c3cc(=O)n(-c4cccc(Cl)c4Cl)c(N)n3)CC2)[C@@H]1N` [Compound 5, 2-amino-6-[(3S,4S)-4-amino-3-methyl-2-oxa-8-azaspiro[4.5]decan-8-yl]-3-(2,3-dichlorophenyl)-3,4-dihydropyrimidin-4-one], for which the IC50 in data set [1] (setting [6]) came out at 760 nM; in the data set with pERK1/2 in KYSE520 cells (Homo sapiens, KYSE-520, 2 h), 14500 nM.
In the same order, the values of `Nc1nc(N2CCC3(CC2)Cc2ccccc2[C@H]3N)cc(=O)n1-c1cccc(Cl)c1Cl` [Compound 118, 2-amino-6-[(3S)-3-amino-1,3-dihydrospiro[indene-2,4′-piperidin]-1′-yl]-3-(2,3-dichlorophenyl)-3,4-dihydropyrimidin-4-one] are 16 nM and 51 nM.
For `Cc1c(N2CCC3(CC2)C[C@H](C)C[C@H]3N)nc(C)n(-c2cccc(Cl)c2Cl)c1=O` (atropisomer, axis not shown) [Compound 111a, (3M)-6-[(1R,3S)-1-amino-3-methyl-8-azaspiro[4.5]decan-8-yl]-3-(2,3-dichlorophenyl)-2,5-dimethyl-3,4-dihydropyrimidin-4-one], in that order: 93 nM and 720 nM.
As to `[2H]C([2H])([2H])c1c(N2CCC3(CC2)CO[C@@H](C)[C@H]3N)nc(C)n(-c2cccc(Cl)c2Cl)c1=O` [Compound 63, 6-[(3S,4S)-4-amino-3-methyl-2-oxa-8-azaspiro[4.5]decan-8-yl]-3-(2,3-dichlorophenyl)-5-(^2H3)methyl-2-methyl-3,4-dihydropyrimidin-4-one], the results for the IC50 (in data set [1] (setting [9]); in the data set with pERK1/2 in KYSE520 cells (2 h)) were 39 nM and 467 nM, respectively.
For the molecule `Cc1nc(N2CCC(N)(CCO)CC2)cc(=O)n1-c1cccc(Cl)c1Cl` [Compound 26, 6-[4-amino-4-(2-hydroxyethyl)piperidin-1-yl]-3-(2,3-dichlorophenyl)-2-methyl-3,4-dihydropyrimidin-4-one], the IC50 stood at 380 nM in data set [1] (setting [6]) and 2290 nM in the data set on pERK1/2 in KYSE520 cells (Homo sapiens, KYSE-520, 2 h).
In the same order, the values of `Cc1c(N2CCC3(CCC3N)CC2)nc(C)n(-c2cccc(Cl)c2Cl)c1=O` (stereo not drawn) [Compound 82, 6-1-amino-7-azaspiro[3.5]nonan-7-yl-3-(2,3-dichlorophenyl)-2,5-dimethyl-3,4-dihydropyrimidin-4-one] are 560 nM and 6630 nM.

Values taken from US11001561B2, “Pyrimidinone derivatives as SHP2 antagonists” (MERCK PATENT GMBH, priority 2019, dated 2021).
